Measured values taken from PMC8624133, “10th Trends in Medical Mycology Held on 8 to 11 October 2021, Aberdeen, Scotland, Organized by the European Confederation of Medical Mycology (ECMM)” (Journal of Fungi, 2021).
≈ marks a conversion by molar mass, not a printed value. Non-standard residues stand in square brackets, D forms with d. Residues, ends and D or L forms follow the SMILES beside them. No end group written: not given here. pS = N[C@@H](COP(=O)(O)O)C(=O)O

Key:
C. krusei ATCC 6558 = assay: Broth microdilution of modified HDPs; type: cell-based, Candida krusei; details: 0.19 to 50 μg/mL tested
From the text: (§1) Materials & Methods: From the Scarabaeidae family transcriptome, 14 promising HDPs were identified. Subsequently, we designed new sequences modifying the net charge, hydrophobic angle and the general composition of amino acids, among other properties, in order to improve the HDPs antifungal activity. The in vitro antifungal susceptibility of the 14 modified HDPs against Candida krusei, ATCC 6558, Candida parapsilosis ATCC 22019, Candida glabrata ATCC 2001, Candida tropicalis ATCC 750, Cryptococcus neoformans H99 and Cryptococcus gattii H0058-I-2029 isolates were evaluated by broth microdilution, with a concentration ranging from 0.19 to 50 μg/mL for all peptides.

[1] = test system: C. parapsilosis ATCC 22019; assay: Broth microdilution of modified HDPs; type: cell-based, Candida parapsilosis; details: 0.19 to 50 μg/mL tested
From the text: as §1

C. albicans SC5314 = assay: Broth microdilution of modified HDPs; type: cell-based, Candida albicans; details: 0.19 to 50 μg/mL tested
C. tropicalis ATCC 750 = assay: Broth microdilution of modified HDPs; type: cell-based, Candida tropicalis; details: 0.19 to 50 μg/mL tested
From the text: as §1

C. albicans ATCC 1453 = assay: Broth microdilution of modified HDPs; type: cell-based, Candida albicans; details: 0.19 to 50 μg/mL tested
C. glabrata ATCC 2001 = assay: Broth microdilution of modified HDPs; type: cell-based, Candida glabrata; details: 0.19 to 50 μg/mL tested
From the text: as §1

C. neoformans H99 = assay: Broth microdilution of modified HDPs; type: cell-based, Cryptococcus neoformans; details: 0.19 to 50 μg/mL tested
From the text: as §1

C. gattii H0058-I-2029 = assay: Broth microdilution of modified HDPs; type: cell-based, Cryptococcus gattii; details: 0.19 to 50 μg/mL tested
From the text: as §1

C. auris [2] = assay: CLSI M27-A3 broth microdilution; type: cell-based, Candida auris; details: for GM MIC (≥90% reduction of visible growth): 256–16 μg/mL tested, duplicate at two times
[3] = test system: nine strains of Candida spp.; assay: CLSI M27-A3 broth microdilution; type: cell-based
[4] = test system: P. insidiosum (strains CBS101555, P38, ATCC90586); assay: Radial growth assay; type: cell-based, Pythium insidiosum
Experimental: These agriculture fungicides were initially evaluated for inhibitory effect against 3 phylogenetical distinct strains of P. insidiosum (i.e., strains CBS101555, P38, and ATCC90586) isolated from humans and animal with pythiosis in Thailand, Brazil, and United States. A radial growth assay was employed for the in vitro susceptibility analysis. […] The percentage of the colony’s radial growth of the treated organism was calculated in relation to the untreated control. The microscopic changes of the microorganisms were recorded.

C. auris [5] = assay: EUCAST EDef 7.3.1 MIC and checkerboard microdilution; type: cell-based, Candida auris
Experimental: Methods: We studied 22 C. auris isolates obtained from different clinical samples from the Hospital La Fe, Valencia, Spain (eight from blood culture, seven from oropharynx and seven from urine cultures). Candida parapsilosis ATCC 22019 and Candida krusei ATCC 6258 were used as quality controls. The minimum inhibitory concentration (MIC) was determined according to the European Committee on Antibiotic Susceptibility Testing (EUCAST) EDef 7.3.1 document. The interaction between citral and the rest of antifungal drugs was assessed by a checkerboard microdilution method. […] The in vitro interaction of the drug combinations was interpreted in terms of the fractional inhibitory concentration index (FICI) as follows: FICI < 1, synergistic; FICI equal to 1, additive; and FICI > 1, indifferent or antagonistic.

Row | Molecule | MIC (C. krusei ATCC 6558) [µg/mL] | MIC [1] [µg/mL] | MIC (C. albicans SC5314) [µg/mL] | MIC (C. tropicalis ATCC 750) [µg/mL] | MIC (C. albicans ATCC 1453) [µg/mL] | MIC (C. glabrata ATCC 2001) [µg/mL] | MIC (C. neoformans H99) [µg/mL] | MIC (C. gattii H0058-I-2029) [µg/mL] | further results
1 | GSKRWRKFEKRVKKIFEKTKEA-NH2 [Act5] | 1.56 | 3.12 | 25 to 50 | >50 | >50 | 3.12 | 25 | 1.56 | 
2 | CC[C@H](C)[C@H](NC(=O)[C@H](CCCCN)NC(=O)[C@H](CCCCN)NC(=O)[C@@H](NC(=O)[C@H](CCCNC(=N)N)NC(=O)[C@H](CCCCN)NC(=O)[C@H](CCC(=O)O)NC(=O)[C@H](Cc1ccccc1)NC(=O)[C@H](CCCCN)NC(=O)[C@H](CCCNC(=N)N)NC(=O)[C@H](Cc1c[nH]c2ccccc12)NC(=O)[C@H](CCCNC(=N)N)NC(=O)[C@H](CCCCN)NC(=O)[C@H](COP(=O)(O)O)NC(=O)[C@@H](N)CCCCN)C(C)C)C(=O)N[C@@H](Cc1ccccc1)C(=O)N[C@@H](CCC(=O)O)C(=O)N[C@@H](CCCCN)C(=O)N[C@H](C(=O)N[C@@H](CCCCN)C(=O)N[C@@H](CCC(=O)O)C(=O)N[C@@H](C)C(=O)N[C@@H](CCCCN)C(N)=O)[C@@H](C)O [Act2.1] (H-K[pS]KRWRKFEKRVKKIFEKTKEAK-NH2) | 0.78 (≈ 0.255 µM) | 1.56 (≈ 0.51 µM) | >50 | >50 | >50 | 1.56 (≈ 0.51 µM) | >50 | 1.56 (≈ 0.51 µM) | 
3 | Cc1ccc(C(C)C)c(O)c1 [thymol] |  |  |  |  |  |  |  |  | GM MIC (≥90% reduction of visible growth) (C. auris [2]): 104 µg/mL
4 | KSKRWRKFEKRVKKIFEKFKEAK-NH2 [Act2.2] | 0.78 | 1.56 | >50 | 12.5 | >50 | 1.56 | 12.5 | 1.56 | 
5 | GSKRWRKFEKRVKKIFEHTKEAK-NH2 [Act8] | 0.78 | 1.56 | >50 | >50 | >50 | 3.12 | 50 | 3.12 | 
6 | C=C(C)[C@H]1CC=C(C)CC1 [D-limonene] |  |  |  |  |  |  |  |  | MICs range (C. auris [2]): 16 to 128 µg/mL; GM MIC (≥90% reduction of visible growth) (C. auris [2]): 20.39 µg/mL; selectivity index (SI) ([3]; C. glabrata LMDM 34 vs HaCat): 6; selectivity index (SI) ([3]; C. methapsilosis MUM 1512 vs HaCat): 50; selectivity index (SI) ([3]; C. orthopsilosis MUM 1713 vs HaCat): 25; selectivity index (SI) ([3]; C. tropicalis ATCC 200956 vs HaCat): 12
7 | GSKRWRKFEKRVKK-NH2 [domcec] | 3.12 | 3.12 | >50 | >50 | >50 | 6.25 | >50 | >50 | 
8 | KSKRWRKFEKRVKKIFEKTKEAK-NH2 [Act2] | 0.78 | 1.56 | >50 | 50 | >50 | 1.56 | 25 | 3.12 | 
9 | KSKRWRKFEKRVKKIFEHTKEA-NH2 [Act3] | 0.78 | 3.12 | >50 | >50 | >50 | 1.56 | 50 | 3.12 | 
10 | CSC1=N[C@@](C)(c2ccccc2)C(=O)N1Nc1ccccc1 [fenamidone] |  |  |  |  |  |  |  |  | MIC ([4]; Pythium insidiosum): 64 µg/mL (≈ 206 µM); reduction of growth compared to the control ([4]; colony radial growth): at least 70%
11 | KSKRWRKFEKRVKKIFEHTKEAK-NH2 [Act4] | 0.78 | 1.56 | >50 | 50 | >50 | 3.12 | 50 | 1.56 | 
12 | KSKRWRKFEKRVKKIFEKTKEA-NH2 [Act1] | 1.56 | 3.12 | >50 | 50 | >50 | 3.12 | 50 | 6.25 | 
13 | CC(C)=CCCC(C)=CC=O (mixture of isomers) [citral] |  |  |  |  |  |  |  |  | MIC of citral in combination with anidulafungin (C. auris [5]; 21 of the 22 isolates): 3 to 128 µg/mL; MIC (C. auris [5]; Candidozyma auris, 22 clinical isolates): > 1020 µg/mL; isolates with additive effect (FICI equal to 1) (C. auris [5]; citral + fluconazole): eight; isolates with synergistic effect (FICI < 1) (C. auris [5]; citral + fluconazole): three; isolates with additive effect (FICI equal to 1) (C. auris [5]; citral + isavuconazole): seven; isolates with synergistic effect (FICI < 1) (C. auris [5]; citral + isavuconazole): seven
14 | RSKKWRKIEKRVKKIFEKTKEA-NH2 [sat122] | 1.56 | 0.39 | >50 | 50 | >50 | 3.12 | 50 | 3.12 | 
15 | GSKRWRKFEKRVKKIFEKTKEAK-NH2 [Act6] | 0.78 | 1.56 | >50 | >50 | >50 | 3.12 | 50 | 3.12 | 
16 | GSKRWRKFEKRVKKIFEETKEALPVVQGVAGVAGAVGRR-NH2 [ConCec] | 0.78 | 0.39 | >50 | 25 | >50 | 1.56 | 25 | 1.56 | 
17 | Cc1ccc(C(C)C)cc1 [p-cymene] |  |  |  |  |  |  |  |  | GM MIC (≥90% reduction of visible growth) (C. auris [2]): 215.3 µg/mL
18 | GSKRWRKFEKRVKKIFEHTKEA-NH2 [Act7] | 0.78 | 1.56 | >50 | >50 | >50 | 3.12 | 50 | 3.12 | 
19 | GSKRWRKFEKRVKKVFEHTKEA-NH2 [ox322] | 1.56 | 1.56 | >50 | >50 | >50 | 3.12 | 50 | 3.12 | 
20 | Cc1ccc(C(C)C)cc1O [carvacrol] |  |  |  |  |  |  |  |  | GM MIC (≥90% reduction of visible growth) (C. auris [2]): 215.3 µg/mL
